The text below walks through data of patent EP3290412A1, “HIV-1 NUCLEOCAPSID INHIBITORS” (Università degli Studi di Siena, priority 2016, dated 2018).

Data set [1] concerns Peripheral blood mononuclear cells (PBMC). The format is cell-based. To be noted: human, 7 days. Here is the method: Peripheral blood mononuclear cells (PBMC) obtained from healthy donors by separation over Ficoll-Hypaque (GEHealthear-Cat.# GEH17-1440-02) were suspended at 2x10^6 cells/mL in RPMI 1640 (Biowest-Cat.#L0501-500) supplemented with 10% of heat-inactivated sterile fetal bovine serum (Gibco-Cat.#10270-106), 2 mmol/l L-glutamine (Biowest-Cat.#X0550-100), 50 U/mL Penicillin-50 µg/mL Streptomycin (Biowest-Cat.#L0022-100), referred to as complete medium (CM). PBMC were supplemented with 5 µg/mL of phytohaemagglutinin (Sigma Aldr-Cat.#L1668) and cultured in 75 cm^2 flasks (Sarsted-Cat.#833.911.002) for 2 days at 37 °C in a humidified atmosphere with 5% CO2.
PBMC were then washed in CM, counted by trypan blue exclusion (Gibco-Cat. #15250-061), centrifuged and suspended in fresh CM supplemented with 20 IU/mL recombinant human IL-2 (Miltenyi Biotec-Cat.#130-097-748) and seeded in a 96-well-tissue culture plate (Sarsted-Ca#831.837) at the density of 5x10^5 cells/mL (or 1x10^5 cells in 200 µL final CM volume per well). Cells were left untreated (negative control) or treated with different concentrations of the compounds.
After 7 days of incubation cytotoxicity was determined using Promega's CellTiter 96(R) AQueous One Solution Cell Proliferation Assay (MTS assay) (Promega-Cat.#G3581) according to the manufacturer's instuctions. This is a colorimetric method for determining the number of viable cells in proliferation or cytotoxicity assays. The MTS tetrazolium compound is bioreduced by cells into a colored formazan product that is soluble in tissue culture medium. This conversion is presumably accomplished by NADPH or NADH produced by dehydrogenase enzymes in metabolically active cells.
Briefly, MTS solution was thawed at room temperature, or in a water bath at 37 °C and 40 µL of MTS solution was pipeted into each well of the 96-well assay plate containing the samples in 200 µL of culture medium and incubated at 37 °C, 5% CO2 for 4 hours. The optical density was read at 490 nm using a 96-well plate reader (Tecan Infinite F50) and TD50 (toxic dose 50%, dose killing 50% of the cells compared to untreated control) value was calculated by interpolation of the curve obtained by plotting dose against percent mortality and by using "Magellan data analysis software". CM alone plus MTS solution was used as a blank, and cell culture well without compound was used as a cellular control.

In data set [2] the test system is HeLa cells. Kind of data set: HeLa Proliferation assay (CellTiter Glo). The format is cell-based. To be noted: 72 hours. Here is the method: HeLa cells (ATCC® CCL2™) in DMEM (Dulbecco Modified Eagle's Medium) without phenol red, Thermo, 11880, USA + 10% FBS + 1X PenStrep + 1X Gln or HUVEC cells (ATCC® CRL1730™) in EBM-2 (Endothelial Growth Basal Medium, Lonza, CC3156) + EGM-2 SingleQuotsTMSupplements and Growth Factors (Lonza, CC4176) + 1X Penicyllin-Streptomycin (PenStrep, ThermoFisher) + 1X Glutamine, are plated in a 384 well plate (Thermo, 4334-11, USA) to a density of 2000 cells per well and let recover for four hours at 37 °C, 5% CO2 in a humidified atmosphere. After the recovery, compounds are transferred to assay plates as per compound preparation method. Assay plates are then incubated at 37 °C, 5% CO2 in a humidified atmosphere for 72 hours. Cell viability is measured by the CellTiter Glo (Promega, G8080, USA) as per manufacturer instruction.
In general terms: ATP-based viability assays read luminescence as a measure of living cells.

As to `Cc1ccc(-c2nc(O)c(O)c(C(=O)N[C@H](C)C3CCCCC3)n2)nc1C` [Compound 67, (R)-N-(1-cyclohexylethyl)-2-(,5,6-dimethylpyridin-2-yl)-5,6-dihydroxypyrimidine-4-carboxamide], the “Proliferation assay PBMC TD50” value in data set [1] was determined as 6700 nM. The “Proliferation assay HELA TD50” value in data set [2] was found to be 3.7577 µM.

Consider `C[C@@H](NC(=O)c1nc(-c2ncccc2C(F)(F)F)nc(O)c1O)C1CCCCC1` [Compound 30, (R)-N-(1-cyclohexylethyl)-5,6-dihydroxy-2-(3-(trifluoromethyl)pyridin-2-yl)pyrimidine-4-carboxamide], for which the “Proliferation assay PBMC TD50” value in data set [1] came out at 5400 nM. In data set [2], the “Proliferation assay HELA TD50” value is >50 µM.

With `C[C@@H](NC(=O)c1nc(-c2cc(C(=O)OCc3ccccc3)ccn2)nc(O)c1O)C1CCCCC1` [Compound 46, benzyl (R)-2-(4-((1-cyclohexylethyl)carbamoyl)-5,6-dihydroxypyrimidin-2-yl)isonicotinate], the “Proliferation assay PBMC TD50” value in data set [1] is 1000 nM. The “Proliferation assay HELA TD50” value in data set [2] amounted to 6.4784 µM.

Take `Cc1cccc(-c2nc(O)c(O)c(C(=O)N[C@H](C)C3CCCCC3)n2)n1` [Compound 18, (R)-N-(1-cyclohexylethyl)-5,6-dihydroxy-2-(6-methylpyridin-2-yl)pyrimidine-4-carboxamide]: the “Proliferation assay PBMC TD50” value in data set [1] was determined as 2400 nM. The “Proliferation assay HELA TD50” value in data set [2] was 4.6302 µM.

`C[C@@H](NC(=O)c1nc(-c2ccc(C(=O)NCc3ccccc3)cn2)nc(O)c1O)C1CCCCC1` [Compound 50, (R)-2-(5-(benzylcarbamoyl)pyridin-2-yl)-N(1-cyclohexylethyl)-5,6-dihydroxypyrimidine-4-carboxamide]: the “Proliferation assay PBMC TD50” value in data set [1] worked out at 2200 nM. Besides, the “Proliferation assay HELA TD50” value in data set [2] was found to be 2.2912 µM.

On to `C[C@@H](NC(=O)c1nc(-c2cccc(C(F)(F)F)n2)nc(O)c1O)C1CCCCC1` [Compound 44, (R)-N-(1-cyclohexylethyl)-5,6-dihydroxy-2-(6-(trifluoromethyl)pyridin-2-yl)pyrimidine-4-carboxamide], for which the “Proliferation assay PBMC TD50” value in data set [1] is 21550 nM. Besides, the “Proliferation assay HELA TD50” value in data set [2] was >50 µM.

Turning to `C[C@@H](NC(=O)c1nc(-c2ccc(NC(=O)OC(C)(C)C)cn2)nc(O)c1O)C1CCCCC1` [Compound 61, tert-butyl (R)-(6-(4-((1-cyclohexylethyl)carbamoyl)-5,6-dihydroxypyrimidin-2-yl)pyridin-3-yl)carbamate], the “Proliferation assay PBMC TD50” value in data set [1] is given as 2400 nM. In addition, in data set [2], the “Proliferation assay HELA TD50” value turned out to be 2.0358 µM.

For `C[C@@H](NC(=O)c1nc(-c2cc(CCNCc3cccn3C)ccn2)nc(O)c1O)C1CCCCC1` [Compound 91, (R)-N-(1-cyclohexylethyl)-5,6-dihydroxy-2-(4-(2-(((1-methyl-1H-pyrrol-2-yl)methyl)amino)ethyl)pyridin-2-yl)pyrimidine-4-carboxamide], the “Proliferation assay PBMC TD50” value in data set [1] turned out to be 1090 nM. In addition, the “Proliferation assay HELA TD50” value in data set [2] is 1.1604 µM.

Consider `O=C(NCCC1CCCC1)c1nc(-c2ccccn2)nc(O)c1O` [Compound 43, N-(2-cyclopentylethyl)-5,6-dihydroxy-2-(pyridin-2-yl)pyrimidine-4-carboxamide], for which the “Proliferation assay PBMC TD50” value in data set [1] was found to be 8090 nM. Further, the “Proliferation assay HELA TD50” value in data set [2] was found to be 2.1901 µM.

On to `C[C@@H](NC(=O)c1nc(-c2cc(C(F)(F)F)ccn2)nc(O)c1O)C1CCCCC1` [Compound 27, (R)-N-(1-cyclohexylethyl)-5,6-dihydroxy-2-(4-(trifluoromethyl)pyridin-2-yl)pyrimidine-4-carboxamide], for which, in data set [1], the “Proliferation assay PBMC TD50” value was determined as 1075 nM. Also, the “Proliferation assay HELA TD50” value in data set [2] was 5.9753 µM.

For `COc1ccc2nc(-c3nc(O)c(O)c(C(=O)N[C@H](C)C4CCCCC4)n3)ccc2c1` [Compound 66, (R)-N-(1-cyclohexylethyl)-5,6-dihydroxy-2-(6-methoxyquinolin-2-yl)pyrimidine-4-carboxamide], the “Proliferation assay PBMC TD50” value in data set [1] is recorded as 6600 nM. Also, the “Proliferation assay HELA TD50” value in data set [2] was 3.66 µM.

Regarding `Cc1ccc(-c2nc(O)c(O)c(C(=O)N[C@H](C)C3CCCCC3)n2)nc1` [Compound 41, (R)-N-(1-cyclohexylethyl)-5,6-dihydroxy-2-(5-methylpyridin-2-yl)pyrimidine-4-carboxamide], the “Proliferation assay PBMC TD50” value in data set [1] turned out to be 2800 nM. The “Proliferation assay HELA TD50” value in data set [2] is 2.013 µM.

Regarding `C[C@@H](NC(=O)c1nc(-c2ccc(C(F)(F)F)cn2)nc(O)c1O)C1CCCCC1` [Compound 36, (R)-N-(1-cyclohexylethyl)-5,6-dihydroxy-2-(5-(trifluoromethyl)pyridin-2-yl)pyrimidine-4-carboxamide], the “Proliferation assay PBMC TD50” value in data set [1] is on record as 465 nM. In addition, in data set [2], the “Proliferation assay HELA TD50” value was found to be 4.7177 µM.

Turning to `O=C(NC1CCCCC1)c1nc(-c2ccccn2)nc(O)c1O` [Compound 4, N-cyclohexyl-5,6-dihydroxy-2-(pyridin-2-yl)pyrimidine-4-carboxamide], the “Proliferation assay PBMC TD50” value in data set [1] was 4800 nM. Also, in data set [2], the “Proliferation assay HELA TD50” value came out at 8.1353 µM.

On to `CC(NC(=O)c1nc(-c2cc(Cl)ccn2)nc(O)c1O)C1CCC(F)(F)CC1` (stereo not shown) [Compound 87, 2-(4-chloropyridin-2-yl)-N-(1-(4,4-difluorocyclohexyl)ethyl)-5,6-dihydroxypyrimidine-4-carboxamide], for which the “Proliferation assay PBMC TD50” value in data set [1] came out at 3220 nM. Moreover, the “Proliferation assay HELA TD50” value in data set [2] came to 6.158 µM.

Regarding `O=C(OC1CCCCC1)c1nc(-c2ccccn2)nc(O)c1O` [Compound 13, cyclohexyl 5,6-dihydroxy-2-(pyridin-2-yl)pyrimidine-4-carboxylate], in data set [1], the “Proliferation assay PBMC TD50” value came out at 16300 nM. Moreover, the “Proliferation assay HELA TD50” value in data set [2] was >50 µM.

Consider `COc1ccnc(-c2nc(O)c(O)c(C(=O)N[C@H](C)C3CCCCC3)n2)c1` [Compound 28, (R)-N-(1-cyclohexylethyl)-5,6-dihydroxy-2-(4-methoxypyridin-2-yl)pyrimidine-4-carboxamide], for which, in data set [1], the “Proliferation assay PBMC TD50” value is recorded as 2700 nM and the “TD50” value stood at 2700 nM. The “Proliferation assay HELA TD50” value in data set [2] was determined as 2.8609 µM.

`C[C@@H](NC(=O)c1nc(-c2ccccn2)nc(O)c1O)C1CCCCC1` [Compound 5, (R)-N-(1-cyclohexylethyl)-5,6-dihydroxy-2-(pyridin-2-yl)pyrimidine-4-carboxamide]: the “Proliferation assay PBMC TD50” value in data set [1] is on record as 3000 nM. Further, the “Proliferation assay HELA TD50” value in data set [2] worked out at 3.1844 µM.

As for `C[C@H](CC1CCCCC1)NC(=O)c1nc(-c2ccccn2)nc(O)c1O` [Compound 64, (R)-N-(1-cyclohexylpropan-2-yl)-5,6-dihydroxy-2-(pyridin-2-yl)pyrimidine-4-carboxamide], the “Proliferation assay PBMC TD50” value in data set [1] stood at 2500 nM. Besides, in data set [2], the “Proliferation assay HELA TD50” value was 0.4717 µM.

In the case of `CC1CCC(NC(=O)c2nc(-c3ccccn3)nc(O)c2O)CC1` (stereo not shown) [Compound 56, 5,6-dihydroxy-N-(4-methylcyclohexyl)-2-(pyridin-2-yl)pyrimidine-4-carboxamide], the “Proliferation assay PBMC TD50” value in data set [1] was 4600 nM. The “Proliferation assay HELA TD50” value in data set [2] came to 3.2039 µM.

With `Cc1ccnc(-c2nc(O)c(O)c(C(=O)N[C@@H](C)C3CCCCC3)n2)c1` [Compound 79, (S)-N-(1-cyclohexylethyl)-5,6-dihydroxy-2-(4-methylpyridin-2-yl)pyrimidine-4-carboxamide], the “Proliferation assay PBMC TD50” value in data set [1] was found to be 2300 nM. Besides, the “Proliferation assay HELA TD50” value in data set [2] was 1.7233 µM.
